Data reported in patent US5795907A, “Gastin and CCK receptor ligands” (James Black Foundation Limited, priority 1994, dated 1998).

Assays:
gastrin = molecular target: T1, gastrin (Rattus norvegicus, UniProt P30553); test: gastrin antagonist activity in an immature rat stomach assay (pentagastrin-stimulated acid secretion); conditions: cumulative pentagastrin dose-response curves after 60 min with drug; for Kb: read-out: Gastrin pKB (converted)
T1 construct: The stomach was lowered into a jacketed organ bath containing 40 ml of buffered solution; from tissue; host or cells: isolated perfused whole stomach of immature rats (ca. 21 days old)
T1 sequence (P30553 1-452): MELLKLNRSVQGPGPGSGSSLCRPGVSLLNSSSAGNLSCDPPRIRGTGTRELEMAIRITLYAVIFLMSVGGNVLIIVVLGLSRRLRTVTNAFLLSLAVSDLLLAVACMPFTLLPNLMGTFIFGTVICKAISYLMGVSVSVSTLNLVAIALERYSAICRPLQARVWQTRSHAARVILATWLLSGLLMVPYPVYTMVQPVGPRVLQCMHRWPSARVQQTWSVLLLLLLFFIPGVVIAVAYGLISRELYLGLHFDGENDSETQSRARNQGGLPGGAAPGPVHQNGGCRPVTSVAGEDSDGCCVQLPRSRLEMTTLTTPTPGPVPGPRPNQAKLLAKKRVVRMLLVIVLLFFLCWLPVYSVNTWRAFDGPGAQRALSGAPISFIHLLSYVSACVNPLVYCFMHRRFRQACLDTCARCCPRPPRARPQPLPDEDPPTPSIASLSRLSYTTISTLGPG
Summary of the method: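 Isolated lumen-perfused immature rat stomach (33-50 g, ca. 21 days) in 37° organ bath with 3×10^-8 M 5-methylfurmethide; acid secretion read by pH electrode in perfusate. Compound added to serosal bath after 120 min stabilisation; cumulative pentagastrin dose-response curves begun 60 min later and analysed by the Black et al. method.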

CCKB receptor = molecular target: T2, CCKB receptor (Mus musculus, UniProt P56481); test: CCKB receptor radioligand binding assay in mouse cortical membranes ([125I]-CCK8S); conditions: [125I]-CCK8S 200 pM, 150 min at 21±3°; for Ki: read-out: CCKB pKi (converted)
T2 construct: The cortex was dissected, weighed and homogenised in 40ml ice-cold buffer; tissue Charles River (supplier of the CD1 mice); host or cells: cerebral cortex membranes of male CD1 mice
T2 sequence (P56481 1-453): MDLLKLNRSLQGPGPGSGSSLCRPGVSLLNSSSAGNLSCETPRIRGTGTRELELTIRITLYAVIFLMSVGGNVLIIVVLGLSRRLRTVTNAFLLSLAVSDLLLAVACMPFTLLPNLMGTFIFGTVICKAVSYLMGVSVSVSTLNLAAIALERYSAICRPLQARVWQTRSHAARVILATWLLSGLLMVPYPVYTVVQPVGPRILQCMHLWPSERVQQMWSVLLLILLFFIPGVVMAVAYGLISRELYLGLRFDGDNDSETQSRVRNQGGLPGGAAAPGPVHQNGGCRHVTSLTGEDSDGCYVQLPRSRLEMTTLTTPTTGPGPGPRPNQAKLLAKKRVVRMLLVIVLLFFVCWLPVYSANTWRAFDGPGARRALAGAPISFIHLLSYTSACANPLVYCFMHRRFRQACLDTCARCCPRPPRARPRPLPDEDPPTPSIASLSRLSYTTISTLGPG
Summary of the method: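 This was competition binding with tracer [125I]-CCK8S (200 pM solution added), run for 150 min at 21±3° on male CD1 mouse cortex membranes in pH 7.2 HEPES buffer with bacitracin. Filtration then gamma counting gave bound radioactivity. L-365,260 set the non-specific level.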

CCKA = molecular target: T3, CCKA (Cavia porcellus, UniProt Q63931); test: CCKA radioligand binding assay in guinea-pig pancreas membranes ([125I]-CCK8(S)); conditions: PD134,308 present, 150 minutes at 21±3°; for Ki: read-out: CCKA pKi (converted)
T3 construct: The pancreatata were homogenised in 40 ml ice-cold HEPES buffer using a polytron; from tissue; host or cells: pancreas membranes of male Dunkin Hartley guinea-pigs
T3 sequence (Q63931 1-430): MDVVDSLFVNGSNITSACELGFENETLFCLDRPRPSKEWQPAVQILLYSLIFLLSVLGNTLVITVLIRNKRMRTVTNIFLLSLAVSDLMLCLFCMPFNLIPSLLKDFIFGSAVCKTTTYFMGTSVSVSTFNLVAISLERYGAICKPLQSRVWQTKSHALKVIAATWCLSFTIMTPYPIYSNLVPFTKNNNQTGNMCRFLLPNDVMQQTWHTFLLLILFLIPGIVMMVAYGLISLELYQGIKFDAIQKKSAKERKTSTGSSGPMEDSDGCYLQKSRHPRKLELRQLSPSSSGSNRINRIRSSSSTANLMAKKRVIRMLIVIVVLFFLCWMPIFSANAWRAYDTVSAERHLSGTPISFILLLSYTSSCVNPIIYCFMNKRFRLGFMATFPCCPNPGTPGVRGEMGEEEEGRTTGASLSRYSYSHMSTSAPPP
Summary of the method: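 Competition for [125I]-CCK8(S) (added as […] solution) ran for 150 min at 21±3° in HEPES pH 7.2. Membranes came from male guinea-pig pancreas at 1 mg/ml original wet weight, with 0.375 μM PD134,308 in the suspension. Filter-bound counts were gamma-counted; 100 nM L-364,718 (added solution) defined non-specific binding.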

Molecule | Kb (gastrin) | CCKB pKi (CCKB receptor) | Ki (CCKA) | Gastrin pKB (gastrin) | CCKA pKi (CCKA) | Ki (CCKB receptor)
CN(C(=O)[C@H](Cc1ccccc1)NC(=O)c1cc2[nH]cnc2cc1C(=O)NCC12CC3CC(CC(C3)C1)C2)c1cc(C(=O)O)cc(C(=O)O)c1 [Example 73, 5-(1S-(3,5-dicarboxyphenyl-N-(methyl)amino-carbonyl)-2-phenylethylaminocarbonyl)-6-(1-adamantane-methylaminocarbonyl)-benzimidazole] | 63.1 nM | 6.3 | 6310 nM |  |  | 
O=C(O)c1cc(NC(=O)[C@H](Cc2ccccc2Cl)NC(=O)c2cc3[nH]cnc3cc2C(=O)NCC23CC4CC(CC(C4)C2)C3)cc(C(=O)O)c1 [Example 135, 5-(1S-(3,5-dicarboxyphenylaminocarbonyl)-2-(2-chlorophenyl)ethylaminocarbonyl)-6-(1-adamantanemethylaminocarbonyl)-benzimidazole] |  | 8.3 |  | 8.9 | 5.1 | 
5-(2R-(1R-carboxyethylaminocarbonyl)pyrrolidinocarbonyl)-6-(1-adamantanemethylaminocarbonyl)-indole [Example 89] |  | 6.2 |  | 6.8 | 5.1 | 
O=C(NCC12CC3CC(CC(C3)C1)C2)c1cc2[nH]ccc2cc1C(=O)N[C@@H](Cc1ccccc1)C(=O)Nc1cc(NS(=O)(=O)C(F)(F)F)cc(NS(=O)(=O)C(F)(F)F)c1 [Example 93, 5-(1S-(3,5-di-trifluoromethylsulphonylaminophenylaminocarbonyl)-2-phenylethylaminocarbonyl)-6-(1-adamantanemethylaminocarbonyl)-indole] |  | 8.1 |  | 7.7 | 5.6 | 
5-(1S-(3-methoxycarbonyl-5-pivaloyloxymethyloxycarbonyl-phenylaminocarbonyl)-2-phenylethylaminocarbonyl)-6-(1-adamantanemethylaminocarbonyl)-indole and regioisomer with substituents at positions 5 and 6 reversed [Example 39] |  | 6.4 |  | 6.8 | 4.9 | 
O=C(O)c1cc(NC(=O)C(Cc2c(F)c(F)c(F)c(F)c2F)NC(=O)c2cc3[nH]cnc3cc2C(=O)NCC23CC4CC(CC(C4)C2)C3)cc(C(=O)O)c1 (racemic) [Example 136, (±)-5-(1-(3,5-dicarboxyphenylaminocarbonyl)-2-pentafluorophenylethylaminocarbonyl)-6-(1-adamantanemethylaminocarbonyl)-benzimidazole] | 0.316 nM |  | > 10000 nM |  |  | 1.26 nM
O=C(O)c1cc(NC(=O)[C@@H]2CCCN2C(=O)c2cc3[nH]cnc3cc2C(=O)NCC23CC4CC(CC(C4)C2)C3)cc(C(=O)O)c1 [Example 77, 5-(2S-(3,5-dicarboxyphenylaminocarbonyl)-pyrrolidinocarbonyl)-6-(1-adamantanemethylaminocarbonyl)-benzimidazole] | 100 nM |  | > 10000 nM |  |  | 251 nM
COC(=O)c1cc(NC(=O)[C@H](Cc2ccccc2)NC(=O)c2cc3[nH]cnc3cc2C(=O)NCC23CC4CC(CC(C4)C2)C3)cc(C(=O)OC)c1 [Example 81, 5-(1S-(3,5-dimethoxycarbonylphenylaminocarbonyl)-2-phenylethylaminocarbonyl)-6-(1-adamantane-methylaminocarbonyl)-benzimidazole] | 126 nM |  | 3160 nM |  |  | 794 nM
O=C(O)c1cc(NC(=O)[C@H](Cc2ccccc2)NC(=O)c2cc3[nH]cnc3cc2C(=O)NCC23CC4CC(CC(C4)C2)C3)ccc1F [Example 75, 5-(1S-(3-carboxy-4-fluoro-phenylaminocarbonyl)-2-phenylethylaminocarbonyl)-6-(1-adamantanemethylaminocarbonyl)-benzimidazole] |  | 7.8 |  | 7.7 | 6.1 | 
O=C(O)c1cc(NC(=O)[C@H](Cc2ccccc2)NC(=O)C2Cc3[nH]cnc3CN2C(=O)NCC23CC4CC(CC(C4)C2)C3)cc(C(=O)O)c1 (mixture of isomers) [Example 126, (±)-6-(1S-(3,5-dicarboxyphenylaminocarbonyl)-2-phenylethylaminocarbonyl)-5-(1-adamantanemethylaminocarbonyl)-4,5,6,7-tetrahydro-5-aza-benzimidazole] | 100 nM |  | 5010 nM |  |  | 501 nM
O=C(O)c1cc(NC(=O)[C@H](Cc2ccc(F)cc2)NC(=O)c2cc3[nH]cnc3cc2C(=O)NCC23CC4CC(CC(C4)C2)C3)cc(C(=O)O)c1 [Example 132, 5-(1S-(3,5-dicarboxyphenylaminocarbonyl)-2-(4-fluorophenyl)ethylaminocarbonyl)-6-(1-adamantanemethylaminocarbonyl)-benzimidazole] | 1 nM |  | 3980 nM |  |  | 3.98 nM
O=C(NCC12CC3CC(CC(C3)C1)C2)c1cc2ccccc2cc1C(=O)N1CCC[C@@H]1C(=O)O [Example 3, 3-(2R-carboxypyrrolidino-carbonyl)-2-(1-adamantanemethylaminocarbonyl)-naphthalene] | 200 nM |  | 3160 nM |  |  | 398 nM
O=C(NCC12CC3CC(CC(C3)C1)C2)c1cc2nc[nH]c2cc1C(=O)N[C@@H](Cc1ccccc1)C(=O)Nc1cccc(S(=O)(=O)NC(=O)C(F)(F)F)c1 [Example 128, 5-(1S-(3-trifluoroacetylaminosulphonylphenylaminocarbonyl)-2-phenylethylaminocarbonyl)-6-(1-adamantanemethylaminocarbonyl)-benzimidazole] | 2.51 nM |  | 2000 nM |  |  | 6.31 nM
CC(=O)n1ccc2cc(C(=O)N[C@@H](Cc3ccccc3)C(=O)Nc3cc(C(=O)O)cc(C(=O)O)c3)c(C(=O)NCC34CC5CC(CC(C5)C3)C4)cc21 [Example 44, 5-(1S-(3,5-dicarboxyphenylaminocarbonyl)-2-phenylethylaminocarbonyl)-6-(1-adamantanemethylaminocarbonyl)-N-acetyl-indole] |  | 8.7 |  | 8.7 | 5.6 | 
O=C(O)c1cc(NC(=O)C(Cc2ccc(F)cc2F)NC(=O)c2cc3[nH]cnc3cc2C(=O)NCC23CC4CC(CC(C4)C2)C3)cc(C(=O)O)c1 (racemic) [Example 85, (±)-5-(1-(3,5-dicarboxyphenylaminocarbonyl)-2-(2,4-difluorophenyl)ethylaminocarbonyl)-6-(1-adamantanemethylaminocarbonyl)-benzimidazole] | 1.26 nM |  | 3160 nM |  |  | 5.01 nM
